# Experimental data reported in PubChem BioAssay AID1996.
# Conditions: buffer; pH 7.4; 200.0 µM
row,SMILES,solubility kinetic [µg/mL]
1,CC(=O)NC(CC(=O)N1CCCC1)c1ccccc1 (stereo not given),> 39.1
2,CC(C)N1C(=O)C2(OCCCO2)c2cc(Br)ccc21,46.9
3,CCC(=O)Nc1sc(Cc2ccc3c(c2)OCO3)c(C)c1C(N)=O,5.2
4,O=C(CNC(=O)c1ccc(Cl)cc1Cl)NCC1CCCO1 (stereo not given),> 49.7
5,COc1ccc(/C=C/C(=O)OCC(=O)c2ccc[nH]2)cc1,5
6,Cc1ccsc1/C=C1\SC(=S)N(CC2CCCO2)C1=O (stereo not given),< 0.7
7,CC1CCc2c(sc3[nH]c(=S)n(C)c(=O)c23)C1 (stereo not given),4.2
8,CN1CCN(c2nc(NCc3ccco3)nc(N)c2[N+](=O)[O-])CC1,> 50
9,COc1ccccc1C(=O)OCCN=C1NS(=O)(=O)c2ccccc21,> 54.1
10,O=c1ccc2c([nH]1)CCCCCCCCCC2,5.2
11,CC(=O)c1ccc(NC(=O)CSc2nccn2C)cc1,> 43.4
12,CCOC(=O)C1CCN(C(=O)COC(=O)c2c(C)c(CC)nc3ccccc23)CC1,20.3
13,COc1ccc(C(=O)NC2CCCCCC2)cc1S(=O)(=O)N1CCCC1,6
14,CCN(CC)c1cccc(OC(=O)c2cccnc2Cl)c1,6.8
15,Cc1cc(C)cc(OCC(=O)N2CCc3ccccc3C2)c1,31.5
16,C=CCSc1nc(C)c(CCC(C)C)c(=O)[nH]1,9.2
17,COc1ccc2c(c1OC)C(=O)N(c1ccc(C)cc1)C2,3.2
18,CCOc1ccc(NS(=O)(=O)c2cc(NC(=O)C3CC3)ccc2C)cc1Br,3
19,O=C(NCC(=O)N1CCCC(C(F)(F)F)C1)c1ccco1 (stereo not given),> 45.6
20,Cc1cc(=O)[nH]c(SCC(=O)N2CCCCC2)n1,> 40.1
21,COc1ccc(CN2CCN(C3CCC3)CC2CCO)cc1C (stereo not given),42.3
22,O=C(NCC(=O)N1CC=C(c2ccccc2)CC1)c1ccco1,> 46.6

row,SMILES,solubility kinetic [µg/mL]
1,O=C(NC1(O)C(=O)c2ccccc2C1=O)c1ccc(C(F)(F)F)cc1,> 52.4
2,O=C(OCC(=O)c1ccccc1)C1=NN(c2ccccc2)C(=O)CC1,> 50.5
3,COc1ccccc1CNC(=O)CCN1C(=O)c2ccccc2C1=O,> 50.8
4,COc1ccc(NC(=O)CCS(=O)(=O)c2ccc(Cl)cc2)cc1,18.4
5,COC(=O)c1cccc(N2CCCC2=O)c1,> 32.9
6,CCC(NC(=O)c1ccccc1NC(=O)C(C)(C)C)C(=O)N1CC(C)OC(C)C1 (stereo not given),> 60.5
7,COc1cc(Br)ccc1NC(=O)c1ccccc1-c1ccccc1C(=O)O,53.3
8,CCn1c(C)c(C(=O)Nc2ccc(OC)cc2)c2cc(OC)ccc21,0.4
9,CC(C)Cn1cnc2c1c(=O)[nH]c(=O)n2Cc1ccccc1,32.7
10,CCOc1ccc(Br)cc1S(=O)(=O)NC1=NCCCCC1,> 56.3
11,O=C(NCCc1ccccc1)C(=O)Nc1ccc2c(c1)OCCO2,< 0.3
12,COC(=O)C1CCN(C(=O)c2cc(=O)[nH]c3ccccc23)CC1,> 47.2
13,Cc1cc(N2CCOCC2)nc2ccc(Cl)cc12,1.7
14,O=C(CC1SC(N2CCCCC2)=NC1=O)Nc1cccc(C(=O)NCc2ccccc2)c1 (stereo not given),> 67.6
15,CCC(=O)Nc1ccc(C(=O)CN2CCC(C)CC2)cc1,39.4
16,COc1cc(C)c(Cl)cc1S(=O)(=O)N1CCSC1,33
17,O=C1c2ccccc2C(=O)N1CC(O)COc1ccccc1Cl (stereo not given),44
18,OC(COc1ccc2c(c1)OCO2)CN1CCCCC1 (stereo not given),32.5
19,CC(=O)c1c(C)oc2ccc(NS(=O)(=O)c3ccccc3)cc12,< 0.7
20,O=C(COC(=O)c1cnccn1)NCc1ccc(Cl)cc1,> 45.9
21,Nc1nc(NCCO)nc(NC2CCCCC2)c1[N+](=O)[O-],39.1
22,O=Cc1c(NCCN2CCOCC2)c2ccccc2[nH]c1=O,> 45.2

row,SMILES,solubility kinetic [µg/mL]
1,CC1CN(C(=S)Nc2ccccc2)CC(C)O1 (stereo not given),35.4
2,CCc1ccc(CN(C)C(=O)c2cc(=O)c3ccccc3o2)cc1,35
3,COc1ccc(Cl)cc1NC(=O)C(OC)c1ccccc1 (stereo not given),3.9
4,Cc1ccc(S(=O)(=O)NCc2ccncc2)cc1C,> 41.5
5,COC(=O)c1sccc1Oc1ccc(Cl)cc1N1C(=O)CCC1=O,48.5
6,CC(C)c1nc2sc3c(c2c(=O)[nH]1)CC(C)(C)OC3,6.4
7,CCn1cnc2cc(NCc3cccs3)ccc21,> 38.6
8,Cc1c(C(=O)NC2=NCCS2)cccc1[N+](=O)[O-],37.5
9,COc1ccc(C(=O)Nc2cc3c4c(c2)CC(=O)N4CCC3)cc1,> 48.4
10,O=C(c1ccc(Br)cc1)N1CCCc2ccccc21,14
11,COc1ccc(S(=O)(=O)Nc2ccncc2)c(C)c1C,4.6
12,COc1ccc(Br)cc1S(=O)(=O)NCCc1cccs1,34.4
13,CCOC(=O)c1sc(Nc2nc(C)cc(OC)n2)nc1C,5.1
14,O=c1[nH]c(=S)[nH]c2nc(-c3ccccc3)cnc12,> 38.4
15,C/C(=N\NC(=O)c1ccc(Cl)cc1)c1cccnc1,> 41.1
16,NS(=O)(=O)c1cccc(NC(=O)COC(=O)CCC(=O)c2cccs2)c1,> 59.5
17,CN(C)CCN(C(=O)c1ccc2ccccc2c1)c1nc2c(F)cc(F)cc2s1.Cl,32.8
18,COC(=O)[C@H](c1ccccc1Cl)N1CCc2sccc2C1,15.1
19,CCNC(=O)CC1C(=O)N(c2ccccc2)C(=O)N1CCOC (stereo not given),> 47.9
20,COCCCNC(=O)/C(C#N)=C/c1ccc(F)cc1,38.4
21,COc1ccc(CC(=O)NC2CC(C)(C)NC(C)(C)C2)cc1OC.Cl,> 55.6
22,Cc1cccc(C)c1OCC(=O)Nc1ccc2c(c1)OCCO2,23.5

row,SMILES,solubility kinetic [µg/mL]
1,CN(C)Cc1ccccc1C(O)(c1ccccc1)c1ccccc1,1.2
2,Cc1ccc(N=Cc2cc3c(cc2[N+](=O)[O-])OCO3)cc1[N+](=O)[O-],20.5
3,O=C(Nc1cc(S(=O)(=O)N2CCOCC2)ccc1Cl)c1ccncc1,> 57.3
4,CN1CC(=O)N/C1=N\C(=O)Nc1ccc(O)cc1,> 37.2
5,c1ccc2c(c1)CCNC2c1ccncc1 (stereo not given),> 31.5
6,S=C(c1ccc(-c2ccc(Br)cc2)o1)N1CCCCC1,< 0.8
7,CC(OC(=O)CC1CC2CCC1C2)C(=O)Nc1ccc(C(N)=O)cc1 (stereo not given),> 51.7
8,CCCCN1C(=O)CC(Sc2ncccc2C(=O)O)C1=O (stereo not given),39.9
9,CCN(CC)/C(=N\S(=O)(=O)c1ccc(F)cc1)c1ccccc1,> 50.2
10,COc1cccc(C(c2c(N)n(C)c(=O)n(C)c2=O)C(C)[N+](=O)[O-])c1 (stereo not given),> 52.3
11,Cc1cc(=O)[nH]c(=O)n1Cc1ccccc1,19.2
12,CCN(CC(=O)NCc1ccc(F)cc1)CC(=O)NC1CCCC1,> 50.3
13,C/C(=C/c1ccccc1)C(=O)N1CCC(C)CC1,> 36.5
14,CSCCC(NC(=O)c1ccccc1)C(=O)N1CCN(C(=O)c2ccccc2)CC1 (stereo not given),> 63.8
15,CCN(CC)C(=O)c1ccc(COc2ccccc2Cl)o1,45.5
16,CC1(C)CC(NC(=O)c2c(N)no[n+]2[O-])CC(C)(C)N1,> 42.5
17,Cc1nc(SCC(=O)N2CC(=O)Nc3ccccc32)nc(C)c1C,10.8
18,COc1ccccc1C(=O)C1CCCN(Cc2cnc(C)s2)C1 (stereo not given),> 49.6
19,CCN1C(=O)c2ccccc2Sc2ccc(C(=O)O)cc21,> 44.9
